Laboratory results published in US20240246941A1, “SUBSTITUTED 4-(3-AMINOPROP-1-YL)AMINOQUINOLINE ANALOGS AS MODULATORS OF MELANOMA-ASSOCIATED ANTIGEN 11 UBIQUITIN LIGASE” (ST. JUDE CHILDREN'S RESEARCH HOSPITAL, INC., priority 2020, published 2024).

target: interaction between GST-MAGEA11 MHD and FAM-PCF11_4 peptide (MAGE-A11:PCF11) (Homo sapiens (Human), UniProt P43364); assay: TR-FRET dose response competition assay for disruption of MAGE-A11:PCF11 binding; conditions: Dose response TR-FRET screening of nine scaffold groups against MAGE-A11:PCF11; read-out: consensus IC50
Procedure, shortened: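 Competition TR-FRET at room temperature in 50 mM Tris pH 7.5, 20 mM MgCl2, 0.1 mg/ml BSA, 1 mM DTT: final 5 nM GST-MAGEA11 MHD, 5 nM Tb-anti-GST, 200 nM FAM-PCF11_4, 90 min. Ratio 520/490 nm converted to % inhibition; IC50 from sigmoidal fit.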

Sequence of interaction between GST-MAGEA11 MHD and FAM-PCF11_4 peptide (MAGE-A11:PCF11) (P43364 218-429): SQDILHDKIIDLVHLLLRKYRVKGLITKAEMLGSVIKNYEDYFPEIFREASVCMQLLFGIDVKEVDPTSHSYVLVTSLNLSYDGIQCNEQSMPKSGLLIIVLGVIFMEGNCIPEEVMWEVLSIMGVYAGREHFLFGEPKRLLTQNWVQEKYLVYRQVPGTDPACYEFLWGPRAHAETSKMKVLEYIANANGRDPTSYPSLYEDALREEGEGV

SMILES | IC50 [µM]
FC(F)(F)Oc1ccc(CNCCCNc2ccnc3cc(Cl)ccc23)cc1 [SJ000521025-1] | 69.9
COc1ccc(F)c(CNCCCNc2ccnc3cc(Cl)ccc23)c1 [SJ000521030-1] | 69.9
Fc1cccc(C(F)(F)F)c1CNCCCNc1ccnc2cc(Cl)ccc12 [SJ000521031-1] | 69.9
COc1ccc(OC(F)(F)F)cc1CNCCCNc1ccnc2cc(Cl)ccc12 [SJ000521035-1] | 69.9
COc1ccc(C(F)(F)F)cc1CNCCCNc1ccnc2cc(Cl)ccc12 [SJ000521036-1] | 69.9
CCc1ccc(CNCCCNc2ccnc3cc(Cl)ccc23)cc1 [SJ000521039-1] | 69.9
FC(F)(F)Oc1cccc(CNCCCNc2ccnc3cc(C(F)(F)F)ccc23)c1 [SJ000521045-2] | 69.9
FC(F)(F)c1cccc(CNCCCNc2ccnc3cc(C(F)(F)F)ccc23)c1 [SJ000521047-1] | 69.9
FC(F)(F)c1ccc2c(NCCCNCc3cccc4c3OCO4)ccnc2c1 [SJ000521048-1] | 69.9
FC(F)(F)c1ccc2c(NCCCNCc3ccccc3C(F)(F)F)ccnc2c1 [SJ000521049-1] | 69.9
FC(F)(F)Oc1ccc(CNCCCNc2ccnc3cc(C(F)(F)F)ccc23)cc1 [SJ000521050-1] | 69.9
COc1cccc(F)c1CNCCCNc1ccnc2cc(C(F)(F)F)ccc12 [SJ000521051-1] | 69.9
COc1ccc(F)cc1CNCCCNc1ccnc2cc(C(F)(F)F)ccc12 [SJ000521052-1] | 69.9
FC(F)(F)c1ccc2c(NCCCNCc3ccc4[nH]ccc4c3)ccnc2c1 [SJ000521054-1] | 0.397
COc1ccc(F)c(CNCCCNc2ccnc3cc(C(F)(F)F)ccc23)c1 [SJ000521058-1] | 69.9
Fc1cccc(C(F)(F)F)c1CNCCCNc1ccnc2cc(C(F)(F)F)ccc12 [SJ000521059-1] | 69.9
COc1ccc(OC(F)(F)F)cc1CNCCCNc1ccnc2cc(C(F)(F)F)ccc12 [SJ000521063-1] | 69.9
COc1ccc(C(F)(F)F)cc1CNCCCNc1ccnc2cc(C(F)(F)F)ccc12 [SJ000521064-1] | 69.1
Fc1cccc(CNCCCNc2ccnc3cc(C(F)(F)F)ccc23)c1 [SJ000521066-1] | 69.9
CCc1ccc(CNCCCNc2ccnc3cc(C(F)(F)F)ccc23)cc1 [SJ000521067-1] | 40.9

SMILES | IC50 [µM]
CN(C)c1ccc(CNCCCNc2ccnc3cc(Cl)ccc23)c2ccccc12 [SJ000523054-1] | 69.9
Nc1ccccc1CNCCCNc1ccnc2cc(Cl)ccc12 [SJ000523055-1] | 69.9
Clc1ccc2c(NCCCNCc3ccc4c(c3)OCO4)ccnc2c1 [SJ000523056-1] | 69.9
COc1ccc(CNCCCNc2ccnc3cc(Cl)ccc23)cc1 [SJ000523059-1] | 69.9
Fc1ccccc1CNCCCNc1ccnc2cc(Cl)ccc12 [SJ000523060-1] | 69.9
Fc1cccc(CNCCCNc2ccnc3cc(Cl)ccc23)c1 [SJ000523061-1] | 69.9
Fc1ccc(CNCCCNc2ccnc3cc(Cl)ccc23)cc1 [SJ000523062-1] | 69.9
N#Cc1cccc(CNCCCNc2ccnc3cc(Cl)ccc23)c1 [SJ000523063-1] | 69.9
Clc1ccc2c(NCCCNCc3ccc(-c4ccccc4)cc3)ccnc2c1 [SJ000523064-1] | 34.9
Clc1ccc2c(NCCCNCc3ccc4ccccc4c3)ccnc2c1 [SJ000523065-1] | 69.9
Cc1cccc(CNCCCNc2ccnc3cc(Cl)ccc23)c1 [SJ000523066-1] | 69.9
COC(=O)c1ccc(CNCCCNc2ccnc3cc(Cl)ccc23)cc1 [SJ000523067-1] | 69.9
CCCN1C(=O)c2ccccc2NC1c1ccc(Cl)cc1 (stereo not drawn) [SJ000550608-1] | 69.9
CCn1c2ccccc2c2cc(CNC3CCCCC3)ccc21 [SJ000550865-1] | 69.9
CCn1c2ccccc2c2cc(CN3CCCC(O)C3)ccc21 (stereo not drawn) [SJ000550874-1] | 69.9
O=C1c2ccccc2NC(c2ccc(Cl)cc2Cl)N1Cc1ccccc1 (stereo not drawn) [SJ000551164-1] | 69.9
CCCN1C(=O)c2ccccc2NC1c1cc(OC)c(OC)c(OC)c1 (stereo not drawn) [SJ000551165-1] | 69.9
O=C1c2ccccc2NC(c2ccc(Cl)c(Cl)c2)N1Cc1ccccc1 (stereo not drawn) [SJ000551208-1] | 69.9
COc1ccc(C2Nc3ccccc3C(=O)N2Cc2ccccc2)cc1 (stereo not drawn) [SJ000551209-1] | 69.9
CCOc1ccc(N(C(C)=O)C2=C(N)C(=O)c3ccccc3C2=O)cc1 [SJ000558312-2] | 65.7

same assay, conditions: Table 5, dose response TR-FRET screening of 59 quinoline compounds against MAGE-A11:PCF11; read-out: TR-FRET IC50

SMILES | IC50 [µM]
Clc1ccc2c(NCCCNCc3cc4ccccc4s3)ccnc2c1 [SJ000521032-1] | > 70
Clc1ccc2c(NCCCNCc3csc4ccccc34)ccnc2c1 [SJ000521033-1] | > 70
FC(F)(F)c1ccc2c(NCCCNCc3cc(Br)cs3)ccnc2c1 [SJ000521056-1] | > 70
FC(F)(F)c1ccc2c(NCCCNCc3cc4ccccc4s3)ccnc2c1 [SJ000521060-1] | > 70
FC(F)(F)c1ccc2c(NCCCNCc3csc4ccccc34)ccnc2c1 [SJ000521061-1] | > 70
Fc1ccc(CN(CCCCNc2ccnc3cc(Cl)ccc23)Cc2ccccc2)cc1 [SJ000522725-1] | > 70
CCCN(CCCNc1c2ccc(Cl)cc2nc2ccc(OC)cc12)Cc1ccc2[nH]ccc2c1 [SJ000522732-2] | > 70
CCCN(CCCNc1ccnc2cc(Cl)ccc12)Cc1ccc2[nH]ccc2c1 [SJ000522746-2] | 2.8
CCCN(CCCNc1ccnc2cc(Cl)ccc12)Cc1c(C)cc(C)cc1C [SJ000522749-1] | > 70
CCCN(CCCNc1ccnc2cc(Cl)ccc12)Cc1ccc(CC)cc1 [SJ000523001-1] | > 70
CCCN(CCCNc1ccnc2cc(Cl)ccc12)Cc1cc(C(F)(F)F)ccc1OC [SJ000523012-1] | > 70
CCCN(CCCNc1c2ccc(Cl)cc2nc2ccc(OC)cc12)Cc1c(Cl)ccc(Cl)c1Cl [SJ000523021-1] | > 70
CCCN(CCCNc1ccnc2cc(Cl)ccc12)Cc1ccc(-c2ccccc2)cc1 [SJ000523039-1] | > 70
CCCN(CCCNc1ccnc2cc(Cl)ccc12)Cc1ccc2ccccc2c1 [SJ000523040-1] | > 70
Clc1cccc(-c2ccc(CNCCCNc3ccnc4cc(Cl)ccc34)o2)c1 [SJ000523069-1] | > 70
CCCN(CCCNc1ccnc2cc(C(F)(F)F)ccc12)Cc1ccccc1OC [SJ000523072-1] | > 70
CCCCCCN(CCC)CCCNc1ccnc2cc(C(F)(F)F)ccc12 [SJ000523083-1] | > 70

same assay, conditions: Table 8, representative compounds; read-out: TR-FRET IC50

SMILES | IC50 [µM]
FC(F)(F)Oc1ccc(CNCCCNc2ccnc3cc(Cl)ccc23)cc1 [SJ000521025] | 69.9
COc1ccc(F)c(CNCCCNc2ccnc3cc(Cl)ccc23)c1 [SJ000521030] | 69.9
Fc1cccc(C(F)(F)F)c1CNCCCNc1ccnc2cc(Cl)ccc12 [SJ000521031] | 69.9
COc1ccc(OC(F)(F)F)cc1CNCCCNc1ccnc2cc(Cl)ccc12 [SJ000521035] | 69.9
COc1ccc(C(F)(F)F)cc1CNCCCNc1ccnc2cc(Cl)ccc12 [SJ000521036] | 69.9
CCc1ccc(CNCCCNc2ccnc3cc(Cl)ccc23)cc1 [SJ000521039] | 69.9
FC(F)(F)Oc1cccc(CNCCCNc2ccnc3cc(C(F)(F)F)ccc23)c1 [SJ000521045] | 69.9
FC(F)(F)c1cccc(CNCCCNc2ccnc3cc(C(F)(F)F)ccc23)c1 [SJ000521047] | 69.9
FC(F)(F)c1ccc2c(NCCCNCc3cccc4c3OCO4)ccnc2c1 [SJ000521048] | 69.9
FC(F)(F)c1ccc2c(NCCCNCc3ccccc3C(F)(F)F)ccnc2c1 [SJ000521049] | 69.9
FC(F)(F)Oc1ccc(CNCCCNc2ccnc3cc(C(F)(F)F)ccc23)cc1 [SJ000521050] | 69.9
COc1cccc(F)c1CNCCCNc1ccnc2cc(C(F)(F)F)ccc12 [SJ000521051] | 69.9
COc1ccc(F)cc1CNCCCNc1ccnc2cc(C(F)(F)F)ccc12 [SJ000521052] | 69.9
COc1ccc(F)c(CNCCCNc2ccnc3cc(C(F)(F)F)ccc23)c1 [SJ000521058] | 69.9
Fc1cccc(C(F)(F)F)c1CNCCCNc1ccnc2cc(C(F)(F)F)ccc12 [SJ000521059] | 69.9
COc1ccc(OC(F)(F)F)cc1CNCCCNc1ccnc2cc(C(F)(F)F)ccc12 [SJ000521063] | 69.9
COc1ccc(C(F)(F)F)cc1CNCCCNc1ccnc2cc(C(F)(F)F)ccc12 [SJ000521064] | 69.1
Fc1cccc(CNCCCNc2ccnc3cc(C(F)(F)F)ccc23)c1 [SJ000521066] | 69.9
CCc1ccc(CNCCCNc2ccnc3cc(C(F)(F)F)ccc23)cc1 [SJ000521067] | 40.9
Nc1ccccc1CNCCCNc1ccnc2cc(Cl)ccc12 [SJ000523055] | 69.9
Clc1ccc2c(NCCCNCc3ccc4c(c3)OCO4)ccnc2c1 [SJ000523056] | 69.9
COc1ccc(CNCCCNc2ccnc3cc(Cl)ccc23)cc1 [SJ000523059] | 69.9
Fc1ccccc1CNCCCNc1ccnc2cc(Cl)ccc12 [SJ000523060] | 69.9
Fc1cccc(CNCCCNc2ccnc3cc(Cl)ccc23)c1 [SJ000523061] | 69.9
Fc1ccc(CNCCCNc2ccnc3cc(Cl)ccc23)cc1 [SJ000523062] | 69.9
N#Cc1cccc(CNCCCNc2ccnc3cc(Cl)ccc23)c1 [SJ000523063] | 69.9
Clc1ccc2c(NCCCNCc3ccc(-c4ccccc4)cc3)ccnc2c1 [SJ000523064] | 34.9
Clc1ccc2c(NCCCNCc3ccc4ccccc4c3)ccnc2c1 [SJ000523065] | 69.9
Cc1cccc(CNCCCNc2ccnc3cc(Cl)ccc23)c1 [SJ000523066] | 69.9
COC(=O)c1ccc(CNCCCNc2ccnc3cc(Cl)ccc23)cc1 [SJ000523067] | 69.9
